Reference: ChEMBL document CHEMBL5108027, “An unanticipated discovery of novel naphthalimidopropanediols as potential broad-spectrum antibacterial members” (Eur J Med Chem, 2022)
Converted amounts (≈) assume the structure as drawn. The source made the active and inactive calls. No cut-off for these calls is given here.

Key:
[1] = system: Klebsiella pneumoniae; test: Antibacterial activity against Klebsiella pneumoniae measured by Muller-Hinton broth based microdilution assay; type: functional
[2] = system: Staphylococcus aureus; test: Inhibition of biofilm formation in Staphylococcus aureus at 1 to 8 times MIC measured after 24 hrs by crystal violet staining method; type: functional, organism-based
[3] = system: Staphylococcus aureus; test: Disruption of membrane integrity in Staphylococcus aureus at 8 times MIC by calcein-AM/PI staining based fluorescence analysis; type: functional, organism-based
[4] = system: Staphylococcus aureus; test: Antibiofilm activity in Staphylococcus aureus at 1 to 8 times MIC measured by Alamar blue assay; type: functional, organism-based
[5] = system: Staphylococcus aureus; test: Induction of oxidative stress in Staphylococcus aureus assessed as increase in intracellular ROS level at 1 to 8 times MIC measured after 6 hrs by DCFH-DA staining method; type: functional, organism-based
[6] = system: Acinetobacter baumannii; test: Antibacterial activity against Acinetobacter baumannii measured by Muller-Hinton broth based microdilution assay; type: functional
[7] = system: Staphylococcus aureus; test: Antibacterial activity against methicillin-resistant Staphylococcus aureus N315 measured by Muller-Hinton broth based microdilution assay; type: functional
[8] = system: L929; test: Cytotoxicity against mouse L929 cells assessed as effect on cell growth at 0.25 to 0.5 ug/ml incubated for 24 hrs by MTT assay; type: toxicity, cell-based; conditions: l929, 24 h, dose 0.25-0.5 µg/ml
[9] = system: Escherichia coli; test: Antibacterial activity against Escherichia coli ATCC 25922 measured by Muller-Hinton broth based microdilution assay; type: functional
[10] = system: Staphylococcus aureus; test: Antibacterial activity against Staphylococcus aureus ATCC 29213 measured by Muller-Hinton broth based microdilution assay; type: functional
[11] = system: Pseudomonas aeruginosa; test: Antibacterial activity against Pseudomonas aeruginosa measured by Muller-Hinton broth based microdilution assay; type: functional
[12] = system: Staphylococcus aureus; test: Disruption of membrane integrity in Staphylococcus aureus assessed as increase in nucleic acid leakage by measuring increase in absorbance 1 to 8 times MIC measured for 6 hrs by spectrophotometry; type: functional, organism-based
[13] = system: Staphylococcus aureus; test: Induction of inner membrane permeabilization in Staphylococcus aureus by measuring increase in fluorescence intensity at 1 to 8 times MIC by calcein-AM/PI staining based fluorescence analysis; type: functional, organism-based
[14] = system: Staphylococcus aureus; test: Inhibition of bacterial growth of Staphylococcus aureus at 1 to 2 times MIC; type: functional
[15] = Selectivity ratio of HC50 for hemolytic activity in human RBC to MIC for antibacterial activity against Staphylococcus aureus; type: toxicity; conditions: human red blood cells (erythrocytes)
[16] = system: Staphylococcus aureus; test: Antibacterial activity against Staphylococcus aureus ATCC 25923 measured by Muller-Hinton broth based microdilution assay; type: functional
[17] = system: Staphylococcus aureus; test: Antibacterial activity against Staphylococcus aureus measured by Muller-Hinton broth based microdilution assay; type: functional
[18] = Hemolytic activity in human RBC measured after 1 hr; type: toxicity, cell-based, Erythrocyte; conditions: human red blood cells (erythrocytes)
[19] = system: Staphylococcus aureus; test: Induction of membrane depolarization in Staphylococcus aureus at 0.5 to 2 times MIC measured upto 1 hr by DiSC35 dye-based fluorescence assay; type: functional, organism-based
[20] = system: Pseudomonas aeruginosa; test: Antibacterial activity against Pseudomonas aeruginosa ATCC 27853 measured by Muller-Hinton broth based microdilution assay; type: functional
[21] = system: Staphylococcus aureus; test: Induction of oxidative stress in Staphylococcus aureus assessed as decrease in GSH activity at 1 to 8 times MIC measured after 6 hrs by Ellman's assay; type: functional, organism-based
[22] = system: Staphylococcus aureus; test: Antibacterial activity against Staphylococcus aureus assessed as reduction in metabolic activity at 1 to 8 times MIC measured after 6 hrs by Alamar blue assay; type: functional, organism-based
[23] = system: Staphylococcus aureus; test: Disruption of membrane integrity in Staphylococcus aureus assessed as increase in protein leakage by measuring increase in absorbance 1 to 8 times MIC measured for 6 hrs by Bradford assay; type: functional, organism-based
[24] = system: Escherichia coli; test: Antibacterial activity against Escherichia coli measured by Muller-Hinton broth based microdilution assay; type: functional
[25] = system: Staphylococcus aureus; test: Bactericidal activity against Staphylococcus aureus assessed as reduction in number of colonies at 0.5 to 2 times MIC measured within 6 hrs by time-kill assay; type: functional, organism-based
[26] = system: Enterococcus faecalis; test: Antibacterial activity against Enterococcus faecalis measured by Muller-Hinton broth based microdilution assay; type: functional
[27] = Hemolytic activity in human RBC assessed as hemolytic rate at 2 to 512 ug/ml and measured after 1 hr; type: toxicity, cell-based, Erythrocyte; conditions: human red blood cells (erythrocytes), at 2 to 512 µg/mL, dose 2-512 µg/ml, read-out: Activity
[28] = system: Staphylococcus aureus; test: Antibacterial activity against Staphylococcus aureus measured after 16 passages by resistance development assay; type: functional, organism-based
[29] = system: Staphylococcus aureus; test: Antibacterial activity against Staphylococcus aureus assessed as reduction in LDH activity at 1 to 8 times MIC measured after 6 hrs by microplate reader method; type: functional; set-up: scale not given: the % may be the effect or the level left

SMILES	MIC [1]	MIC [6]	MIC [7]	MIC [9]	MIC [10]	MIC [11]	MIC [16]	MIC [17]	MIC [20]	MIC [24]	MIC [26]	further results
O=C1c2cccc3c(N/N=C/c4cccc(Cl)c4)ccc(c23)C(=O)N1C(CO)CO	8 µg/mL (≈ 18.9 µM)	64 µg/mL (≈ 151 µM)	64 µg/mL (≈ 151 µM)	32 µg/mL (≈ 75.5 µM)	8 µg/mL (≈ 18.9 µM)	64 µg/mL (≈ 151 µM)	32 µg/mL (≈ 75.5 µM)	0.25 µg/mL (≈ 0.59 µM)	2 µg/mL (≈ 4.72 µM)	64 µg/mL (≈ 151 µM)	64 µg/mL (≈ 151 µM)	inhibition [2]: Active; Activity [3]: Active; Activity [4]: Active; Activity [5]: Active; Activity [8]: Non-Toxic; Activity [12]: Active; Activity [13]: Active; inhibition [14]: Active; selectivity ratio [15]: > 4000; HC50 at 1 h [18]: > 1000 µg/mL; Activity [19]: Active; Activity [21]: Active; Activity [22]: Active; Activity [23]: Active; Activity [25]: Active; hemolysis at 1 h [27]: < 5%; Activity [28]: Active; Activity [29]: 70%
O=C1c2cccc3c(N/N=C/c4c[nH]c5ccccc45)ccc(c23)C(=O)N1C(CO)CO	64 µg/mL (≈ 149 µM)	64 µg/mL (≈ 149 µM)	4 µg/mL (≈ 9.34 µM)	64 µg/mL (≈ 149 µM)	2 µg/mL (≈ 4.67 µM)	4 µg/mL (≈ 9.34 µM)	8 µg/mL (≈ 18.7 µM)	8 µg/mL (≈ 18.7 µM)	32 µg/mL (≈ 74.7 µM)	64 µg/mL (≈ 149 µM)	64 µg/mL (≈ 149 µM)	
O=C1c2cccc3c(N/N=C/c4cc(=O)oc5cc(O)ccc45)ccc(c23)C(=O)N1C(CO)CO	4 µg/mL (≈ 8.45 µM)	64 µg/mL (≈ 135 µM)	32 µg/mL (≈ 67.6 µM)	32 µg/mL (≈ 67.6 µM)	8 µg/mL (≈ 16.9 µM)	64 µg/mL (≈ 135 µM)	8 µg/mL (≈ 16.9 µM)	4 µg/mL (≈ 8.45 µM)	4 µg/mL (≈ 8.45 µM)	64 µg/mL (≈ 135 µM)	128 µg/mL (≈ 270 µM)	
Cc1ccc(/C=N/Nc2ccc3c4c(cccc24)C(=O)N(C(CO)CO)C3=O)cc1	8 µg/mL (≈ 19.8 µM)	64 µg/mL (≈ 159 µM)	16 µg/mL (≈ 39.7 µM)	32 µg/mL (≈ 79.3 µM)	4 µg/mL (≈ 9.91 µM)	64 µg/mL (≈ 159 µM)	32 µg/mL (≈ 79.3 µM)	0.5 µg/mL (≈ 1.24 µM)	1 µg/mL (≈ 2.48 µM)	64 µg/mL (≈ 159 µM)	64 µg/mL (≈ 159 µM)	
CCCCCCCCCCn1cc(/C=N/Nc2ccc3c4c(cccc24)C(=O)N(C(CO)CO)C3=O)c2ccccc21	16 µg/mL (≈ 28.1 µM)	64 µg/mL (≈ 113 µM)	64 µg/mL (≈ 113 µM)	32 µg/mL (≈ 56.3 µM)	32 µg/mL (≈ 56.3 µM)	128 µg/mL (≈ 225 µM)	16 µg/mL (≈ 28.1 µM)	16 µg/mL (≈ 28.1 µM)	32 µg/mL (≈ 56.3 µM)	32 µg/mL (≈ 56.3 µM)	64 µg/mL (≈ 113 µM)	
